According to US20100247659A1, “PHENYLPHTHALIMIDE ANALOGS FOR TREATING DIABETIC MACULAR EDEMA” (Charlesson, LLC, priority 2007, published 2010):

System: OIR rats
Test: Retinal NV in OIR rats, fluorescein angiography
Assay type: in vivo, rat
Source text: Induction of oxygen-induced retinopathy (OIR): Induction of OIR followed the procedure as described by Smith et al (Smith, et al. Invest. Opthalmol. Vis. Sci. 1994, 35: 101-111) with some modifications. Briefly, Newborn Brown Norway (BN) rats (Charles River Laboratories) at postnatal day 7 (P7) were exposed to hyperoxia (75% O2) for 5 days (P7-12) and then returned to normoxia (room air) to induce retinopathy.
Retinal angiography with high-molecular-weight fluorescein: High molecular weight fluorescein-dextran was used in retinal angiography as described by Smith et al (Smith, et al. Invest. Opthalmol. Vis. Sci. 1994, 35:101-111). Briefly, animals were anesthetized with ketamine (100 mg/kg of body weight) plus acepromazine (5 mg/kg of body weight) and then perfused through the left ventricle with 50 mg/ml of high molecular weight fluorescein-dextran in PBS. The eyes were marked for orientation, enucleated, and fixed in 4% paraformaldeyde for 3-24 h. Several incisions were made and the retinas were flat-mounted on a gelatin-coated slide. The vasculature was then examined under a fluorescent microscope. Both the total retinal area and the area of the avascular regions were measured using a computerized image-analysis system and averaged within each group.
Newborn BN rats were exposed to 75% oxygen from age P7 to P12. […]

O=C1CCC(N2C(=O)c3ccccc3C2=O)C(=O)N1 (centres unmarked) [thalidomide]
inhibition of retinal NV (1.0 μg/eye intravitreal, evaluated P20): lacked significant inhibition of retinal NV | effect on retinal NV, angiographs (FIG. 9) (5 μl of 0.8 mM per eye, angiography): did not reduce the NV
